Source: ChEMBL document CHEMBL2074428, “New alpha(1)-adrenoceptor antagonists derived from the antipsychotic sertindole - carbon-11 labelling and pet examination of brain uptake in the cynomolgus monkey” (Nucl Med Biol, 2004)

Molecular target: ATP-dependent translocase ABCB1 (Homo sapiens, UniProt P08183)
Experiment: TP_TRANSPORTER: transepithelial transport in Caco2 cells
Type: functional, cell-based
Conditions: caco-2

Sequence of ATP-dependent translocase ABCB1 (P08183 whole entry): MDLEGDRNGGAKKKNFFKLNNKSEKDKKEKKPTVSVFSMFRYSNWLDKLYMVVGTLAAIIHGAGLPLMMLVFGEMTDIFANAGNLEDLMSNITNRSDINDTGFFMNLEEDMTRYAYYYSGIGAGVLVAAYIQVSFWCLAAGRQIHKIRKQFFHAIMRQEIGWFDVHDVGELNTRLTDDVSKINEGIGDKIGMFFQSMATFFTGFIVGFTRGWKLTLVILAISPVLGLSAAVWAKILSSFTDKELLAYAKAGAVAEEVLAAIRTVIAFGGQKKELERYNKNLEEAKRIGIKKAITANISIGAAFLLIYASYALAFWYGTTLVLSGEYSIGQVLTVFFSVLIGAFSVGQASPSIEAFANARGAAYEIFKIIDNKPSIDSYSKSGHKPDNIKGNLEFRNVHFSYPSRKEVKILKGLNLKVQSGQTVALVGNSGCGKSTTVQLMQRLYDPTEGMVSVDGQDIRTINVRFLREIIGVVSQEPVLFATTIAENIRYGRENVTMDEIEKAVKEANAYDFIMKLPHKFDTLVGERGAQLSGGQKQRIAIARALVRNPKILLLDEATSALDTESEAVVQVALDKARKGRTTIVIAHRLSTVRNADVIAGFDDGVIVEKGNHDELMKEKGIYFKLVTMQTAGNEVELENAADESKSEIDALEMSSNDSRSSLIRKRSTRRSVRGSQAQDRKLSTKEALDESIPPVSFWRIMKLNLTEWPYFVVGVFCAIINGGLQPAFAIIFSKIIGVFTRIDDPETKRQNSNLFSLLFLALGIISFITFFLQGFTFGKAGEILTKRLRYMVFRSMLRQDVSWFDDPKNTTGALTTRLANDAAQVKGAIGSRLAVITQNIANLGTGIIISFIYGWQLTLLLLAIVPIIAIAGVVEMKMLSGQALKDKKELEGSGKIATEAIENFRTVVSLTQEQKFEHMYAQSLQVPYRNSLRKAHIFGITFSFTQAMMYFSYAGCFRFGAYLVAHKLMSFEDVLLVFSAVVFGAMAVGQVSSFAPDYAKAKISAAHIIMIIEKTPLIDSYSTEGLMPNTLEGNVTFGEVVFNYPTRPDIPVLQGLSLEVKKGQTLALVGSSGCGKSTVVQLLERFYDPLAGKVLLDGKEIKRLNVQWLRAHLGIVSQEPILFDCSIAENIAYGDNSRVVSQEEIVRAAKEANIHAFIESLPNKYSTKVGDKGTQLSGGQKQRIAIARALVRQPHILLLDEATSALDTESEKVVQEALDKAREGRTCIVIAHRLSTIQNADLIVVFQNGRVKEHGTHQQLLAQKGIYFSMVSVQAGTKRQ

Row | Activity | SMILES
1 | substrate [+] | [11CH3]n1cc(-c2ccc3c(c2)c(C2CCN(CCN4CCNC4=O)CC2)cn3-c2ccc(F)cc2)nn1
2 | substrate [+] | [11CH3]n1nnc(-c2ccc3c(c2)c(C2CCN(CCN4CCNC4=O)CC2)cn3-c2ccc(F)cc2)n1
